Assay results published in patent US20220348572A1, “BRIDGED HETEROCYCLYL-SUBSTITUTED PYRIMIDINE COMPOUND, PREPARATION METHOD THEREFOR, AND PHARMACEUTICAL USE THEREOF” (The National Institutes of Pharmaceutical R&D Co., Ltd., priority 2019, published 2022).

Legend:
TYK2 kinase = molecular target: T1, TYK2 kinase (Homo sapiens, UniProt P29597); test: In vitro inhibitory activity on Tyk2 kinase (ADP-Glo Kinase Assay); format: biochemical; conditions: TYK2 kinase 4 nM, 1 mM ATP
T1 sequence (P29597 897-1187 limits assumed): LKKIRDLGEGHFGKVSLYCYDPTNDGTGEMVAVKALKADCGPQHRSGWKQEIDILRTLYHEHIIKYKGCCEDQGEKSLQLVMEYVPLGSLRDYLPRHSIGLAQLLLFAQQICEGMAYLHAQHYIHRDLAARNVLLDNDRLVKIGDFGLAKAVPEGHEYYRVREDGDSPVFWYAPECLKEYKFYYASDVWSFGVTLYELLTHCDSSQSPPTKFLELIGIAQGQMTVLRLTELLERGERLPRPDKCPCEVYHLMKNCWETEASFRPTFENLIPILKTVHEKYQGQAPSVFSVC
Procedure: Test Example 2: Determination of In Vitro Inhibitory Activity of the Compounds of the Present Invention on Tyk2 Kinase Experimental materials: TYK2 (Invitrogen, PV4790), ATP (Promega, V915B), ADP-Glo Kinase Assay (Promega, V9101), IRS1 (Signalchem, 140-58-1000). Sample preparation: The compounds of the present invention and the control product were dissolved in DMSO solvent respectively to formulate into 10 mM initial liquid. The maximum concentration of the compound was 10 μM, 3-fold dilution, 10 concentration gradients, and duplicate wells for each concentration gradient. Experimental process: 0.1 μL of the compound to be tested was transferred into a 384 reaction plate (PE, 6007290) via Echo and centrifuged at 1000 rpm/min for 1 min. 5 μL TYK2 kinase (final concentration of 4 nM) was transferred into the 384 reaction plate, which was then centrifuged at 1000 rpm/min for 1 min, and incubated at 25° C. for 15 min. 5 μL substrate mixture (1 mM ATP, IRS1 0.05 mg/ml, kinase buffer solution) was transferred into the 384 reaction plate, which was then centrifuged at 1000 rpm/min for 1 min, and incubated at 25° C. for 60 min. 10 μL ADP-Glo was transferred into the 384 reaction plate, which was then centrifuged at 1000 rpm/min for 1 min, and incubated at 25° C. for 40 min. 20 μL test solution was transferred into the 384 reaction plate, which was centrifuged at 1000 rpm/min for 1 min and incubated at 25° C. for 40 min. RLU (Relative luminescence unit) signal was read by using an Envision multifunctional plate reader. The signal intensity was used to characterize the degree of the kinase activity. […] IC50 value of 0-100 nM is shown as A, IC50 value of 100-300 nM is shown as B, IC50 value of 300-1000 nM is shown as C, and IC50 value which is greater than 1000 nM is shown as D. NT means not tested.

[1] = test system: IFN-2α-stimulated TYK2/JAK1-mediated pathway (pSTAT3); test: Inhibition of STAT3 signaling pathway of human whole blood (IFN-2α-induced pSTAT3, flow cytometry); format: cell-based
Procedure: Test Example 3: Inhibition Effect of the Compounds of the Present Invention on STAT3 Signaling Pathway of Human Whole Blood
Sample preparation: The compounds of the present invention and the control were dissolved in DMSO solvent respectively to formulate into 10 mM initial liquid. The maximum concentration of the compound was 10 μM, 3-fold dilution, 10 concentration gradients, and duplicate wells for each concentration gradient.
Experimental process: 20 μL of the compound of the present invention was added to a flow cytometer tube (BD, 352052) containing 180 μL anticoagulant sodium heparin. 20 μL PBS was added to the control. The sample was incubated at 37° C. for 30 min. 2 μL stimulating factor was added and then incubated at 37° C. for 20 min. 1 mL erythrocyte lysate was rapidly added, and the sample was repeatedly inverted 5-10 times or vortexed and then incubated at 37° C. for 10 min. The sample was centrifuged at 600 g for 6-8 min. The supernatant was discarded. The precipitate was vortexed until suspending. The cells were washed with 3 mL PBS and centrifuged at 600 g for 6-8 min. The supernatant was discarded. The precipitate was vortexed until suspending. 1 mL of membrane breaking solution was added, and the system was mixed gently, incubated on ice for 30 min, and centrifuged at 600 g for 6-8 min. The supernatant was discarded. The precipitate was vortexed until suspending. The cells were washed. 3 mL PBS was added. The system was centrifuged at 600 g for 6-8 min. The supernatant was discarded. The precipitate was vortexed untile suspending. The process was repeated twice. 100 μL PBS was added to each staining tube. IFN-2a was added for stimulation, and CD3 and pSTAT3 antibodies […] were added. The system was mixed well, protected from light and incubated at room temperature for 60 min. The cells were washed. 3 mL PBS was added. The system was centrifuged at 600 g for 6-8 min. The supernatant was discarded. The precipitate was vortexed until suspending. The precipitate was suspended in 150 μL in the dark for the flow cytometry analysis. The IC50 (half inhibitory concentration) of the compounds was obtained by using the following non-linear fitting equation:
Y=Bottom+(Top−Bottom)/(1+10^((Log IC50−X)*HillSlope));
X: Log value of the concentration of the compound;
Bottom: The minimum value, Top: The maximum value, HillSlope: Slope
The inhibition effect of by the compounds of the present invention on the IFN-2α-stimulated TYK2/JAK1-mediated pathway is shown in Table 3. IC50 value of 0-100 nM is shown as A, IC50 value of 100-300 nM is shown as B, IC50 value of 300-1000 nM is shown as C, IC50 value which is greater than 1000 nM is shown as D. NT means not tested.

Q: Which results are given for `Cn1cc(Nc2nccc(C3=C[C@H]4CC[C@@H](C3)N4C(=O)[C@@H]3CC3(F)F)n2)cn1` [Compound 1-b, ((S)-2,2-difluorocyclopropyl)((1R,5S)-3-(2-((1-methyl-1H-pyrazol-4-yl)amino)pyrimidin-4-yl)-8-azabicyclo[3.2.1]oct-2-en-8-yl)methanone]?
A: IC50 (TYK2 kinase): < 100 nM; IC50 [1]: < 100 nM

Q: What does the source list for `Cn1cc(Nc2nccc(C3=CC4CCC(C3)N4C(=O)NCC(F)(F)F)n2)cn1` (stereo not drawn) [Compound 3, 3-(2-((1-methyl-1H-pyrazol-4-yl)amino)pyrimidin-4-yl)-N-(2,2,2-trifluoroethyl)-8-azabicyclo[3.2.1]oct-2-ene-8-carboxamide]?
A: IC50 (TYK2 kinase): < 100 nM; IC50 [1]: < 100 nM

Q: For `Cn1cc(Nc2nccc(C3=CC4CCC(C3)N4C(=O)[C@@H]3CC3(F)F)n2)cn1` (stereo partly drawn) [Compound 1, ((S)-2,2-difluorocyclopropyl)(3-(2-((1-methyl-1H-pyrazol-4-yl)amino)pyrimidin-4-yl)-8-azabicyclo[3.2.1]oct-2-en-8-yl)methanone], which IC50 (TYK2 kinase) is on record?
A: Its IC50 is under 100 nM.

Q: What about the IC50 [1] of the same compound?
A: Its IC50 is under 100 nM.
